# Values joined by “and” are separate entries in the source; they are usually repeats but may differ in a detail not shown here. Equal values may be shown once. Read-outs that look alike come from different tables or passages of the source. Where a SMILES comes first, the peptide text is derived from it. Bridges are numbered along the chain shown (N, C = ends). Roman numbers before positions name the chains, in order.
# Tests used:
# [1] = system: Mycobacterium phlei IFO 3158; assay: Antimicrobial activity, paper disc method; format: cell-based; conditions: 40 μg per disc
# [2] = system: Micrococcus luteus IFO 12708; assay: Antimicrobial activity, paper disc method; format: cell-based; conditions: 40 μg per disc
# Description: (§1) The antimicrobial activity of SNA-115 was determined in 24 bacteria, fungi, and yeasts by paper disc method. SNA-115 was placed on paper discs at an amount of 40 μg each and the disc was placed on the test plates. The test plates were cultured under optimal conditions of the test microorganisms.
# [3] = system: Pseudomonas aeruginosa IFO 13130; assay: Antimicrobial activity, paper disc method; format: cell-based; conditions: 40 μg per disc
# Description: as §1
# Escherichia coli BE 1186 = assay: Antimicrobial activity, paper disc method; format: cell-based; conditions: 40 μg per disc
# Description: as §1
# [4] = system: Staphylococcus aureus multi resistant; assay: Antimicrobial activity, paper disc method; format: cell-based; conditions: 40 μg per disc
# Description: as §1
# [5] = system: Schizosaccharomyces Pombe IFO 0638; assay: Antimicrobial activity, paper disc method; format: cell-based; conditions: 40 μg per disc
# Description: as §1
# [6] = system: Colletotrichum lagenarium IFO 7513; assay: Antimicrobial activity, paper disc method; format: cell-based; conditions: 40 μg per disc
# Description: as §1
# [7] = system: Fusarium oxysporum IFO 9761; assay: Antimicrobial activity, paper disc method; format: cell-based; conditions: 40 μg per disc
# Description: as §1
# [8] = system: Salmonella typhimurium TV 119; assay: Antimicrobial activity, paper disc method; format: cell-based; conditions: 40 μg per disc
# Description: as §1
# Chlorella vulgaris = assay: Antimicrobial activity, paper disc method; format: cell-based; conditions: 40 μg per disc
# Description: as §1
# [9] = system: Candida albicans IFO 1594; assay: Antimicrobial activity, paper disc method; format: cell-based; conditions: 40 μg per disc
# Description: as §1
# [10] = system: Escherichia coli multi resistant; assay: Antimicrobial activity, paper disc method; format: cell-based; conditions: 40 μg per disc
# Description: as §1
# [11] = system: Trichophyton rubrum IFO 6203; assay: Antimicrobial activity, paper disc method; format: cell-based; conditions: 40 μg per disc
# Description: as §1
# [12] = system: Staphylococcus aureus IFO 12732; assay: Antimicrobial activity, paper disc method; format: cell-based; conditions: 40 μg per disc
# Description: as §1
# Escherichia coli AB 1157 = assay: Antimicrobial activity, paper disc method; format: cell-based; conditions: 40 μg per disc
# Description: as §1
# Alternaria mali IFO 8984 = assay: Antimicrobial activity, paper disc method; format: cell-based; conditions: 40 μg per disc
# Description: as §1
# [13] = system: Salmonella typhimurium SL 1102; assay: Antimicrobial activity, paper disc method; format: cell-based; conditions: 40 μg per disc
# Description: as §1
# The antimicrobial activity of SNA-115T compound was determined in 9 bacteria and fungi by paper disc method in an agar plate. SNA-115T was placed on paper discs at an amount of 40 μg each and the disc was placed on the test plates. The test plates were cultured under optimal conditions of the rest microorganisms. The inhibition zones of SNA-115 were also shown for the comparison.
# [14] = system: mouse leukemia L1210 cells; assay: Cytotoxicity, cell proliferation (MTT); format: cell-based; conditions: 72 hrs culture
# Description: (§2) Human epidermoid carcinoma (oral) KB cells and mouse leukemia L1210 cells each were placed in a 96 wells microplate (2,000 cells/100 μl/well). The former cells were cultured in DMEM medium and the latter cells were cultured in RPMI 1640 medium, each containing 5% FCS. They were cultured in the presence of 5% CO2 at 37° C. for 24 hrs. Five μl each of a serial concentration of SNA-115 in methanol were added to the wells and cultured for 72 hrs. and cultured further 4 hrs. after the addition of 10 μl of 2.5 mg/ml MTT solution to produce formazan. The cultured mixture was centrifuged at 2,000 rpm for 2 min., the supernatant was removed, 100 μl of DMSO was added to the residue and the absorption at 540 nm was determined by an immunoreader. The cell proliferation inhibitory activity of samples was obtained from comparison of their ratios to that of control group.
# [15] = system: Human epidermoid carcinoma (oral) KB cells; assay: Cytotoxicity, cell proliferation (MTT); format: cell-based; conditions: 72 hrs culture
# Description: as §2
# [16] = molecular target: prolyl endopeptidase derived from Flavobacterium (Elizabethkingia meningoseptica, UniProt P27028); assay: Prolyl endopeptidase inhibitory activity (Z-Gly-Pro-pNA substrate, p-nitroaniline at 410 nm); format: biochemical; conditions: for inhibitory pattern / Ki: Dixon plot; for IC50: 50% inhibitory concentration (IC50), 0.2 mM Z-Gly-Pro-pNA as substrate, sample in methanol, 30° C., pH 7.0; for Ki: inhibitor constant Ki, various concentrations of substrate and inhibitor
# Chain of prolyl endopeptidase derived from Flavobacterium (P27028 21-705): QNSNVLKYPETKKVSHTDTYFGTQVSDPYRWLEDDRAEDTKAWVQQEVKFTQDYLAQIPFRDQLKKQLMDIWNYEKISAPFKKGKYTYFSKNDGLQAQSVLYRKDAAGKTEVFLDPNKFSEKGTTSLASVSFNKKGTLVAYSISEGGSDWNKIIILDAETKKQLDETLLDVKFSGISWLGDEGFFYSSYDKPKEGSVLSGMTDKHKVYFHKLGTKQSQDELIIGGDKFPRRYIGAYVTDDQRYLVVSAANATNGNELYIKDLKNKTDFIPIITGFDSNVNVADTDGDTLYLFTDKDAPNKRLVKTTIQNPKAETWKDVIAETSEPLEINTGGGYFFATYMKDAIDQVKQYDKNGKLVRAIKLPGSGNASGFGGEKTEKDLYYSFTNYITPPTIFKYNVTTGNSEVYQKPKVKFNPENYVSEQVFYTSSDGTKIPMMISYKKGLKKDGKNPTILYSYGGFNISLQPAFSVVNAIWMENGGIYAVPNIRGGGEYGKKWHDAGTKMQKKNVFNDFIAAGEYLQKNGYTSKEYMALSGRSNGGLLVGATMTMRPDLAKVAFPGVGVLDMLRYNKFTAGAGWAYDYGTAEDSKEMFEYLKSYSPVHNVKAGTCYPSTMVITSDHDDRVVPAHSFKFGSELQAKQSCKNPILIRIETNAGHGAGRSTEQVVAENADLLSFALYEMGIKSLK
# [17] = system: Xanthomonas oryzae IFO 3312; format: cell-based
# [18] = system: Xanthomonas citri IFO 3781; assay: Antimicrobial activity, paper disc method; format: cell-based; conditions: 40 μg per disc
# [19] = system: Pyricularia oryzae IFO 5994; format: cell-based
# [20] = system: Botrytis cinerea IFO 5365; assay: Antimicrobial activity, paper disc method; format: cell-based; conditions: 40 μg per disc
# Bacillus subtilis rec^- = assay: Antimicrobial activity, paper disc method; format: cell-based; conditions: 40 μg per disc
# Bacillus subtilis rec^+ = assay: Antimicrobial activity, paper disc method; format: cell-based; conditions: 40 μg per disc
# [21] = system: Pseudomonas aeruginosa N-10 (L-form); assay: Antimicrobial activity, paper disc method; format: cell-based; conditions: 40 μg per disc
# Solubility in solvents = conditions: organic solvents and water, qualitative
# [22] = Acute toxicity (intravenous injection)
# [23] = ( ) indicates partial inhibition
smiles,measurement,setting,value
CC[C@H](C)[C@H](NC(=O)[C@H](Cc1ccccc1)NC(=O)[C@@H](NC(=O)[C@H](Cc1c[nH]cn1)NC(=O)CNC(=O)CNC(=O)[C@H](Cc1ccccc1)NC(=O)[C@H](CC(C)C)NC(=O)[C@@H]1CC(=O)NCC(=O)N[C@@H](Cc2ccc(O)cc2)C(=O)N2CCC[C@H]2C(=O)N[C@@H](Cc2c[nH]c3ccccc23)C(=O)N[C@@H](Cc2c[nH]c3ccccc23)C(=O)N[C@@H](CC(=O)O)C(=O)N[C@@H](Cc2ccc(O)cc2)C(=O)N[C@@H](CCCNC(=N)N)C(=O)N1)[C@@H](C)O)C(=O)N[C@@H](CO)C(=O)N1CCC[C@H]1C(=O)O [SNA-115] (GYPWWDYRDLFGGHTFISP-OH; lactam N-9),Inhibition zone,[1],14.5 mm and 13.8 mm
same,Inhibition zone,[2],0 mm
same,Inhibition zone,[3],0 mm
same,Inhibition zone,Escherichia coli BE 1186,0 mm
same,Inhibition zone,[4],0 mm
same,Inhibition zone,[5],0 mm
same,Inhibition zone,[6],0 mm
same,Inhibition zone,[7],0 mm
same,Inhibition zone,[8],0 mm
same,Inhibition zone,Chlorella vulgaris,0 mm
same,Inhibition zone,[9],0 mm
same,Inhibition zone,[10],0 mm
same,Inhibition zone,[11],0 mm
same,Inhibition zone,[12],0 mm
same,Inhibition zone,Escherichia coli AB 1157,0 mm
same,Inhibition zone,Alternaria mali IFO 8984,0 mm
same,Inhibition zone,[13],0 mm
same,IC50 against cell proliferation,[14],"> 1,000 μg/ml"
same,IC50 against cell proliferation,[15],"> 1,000 μg/ml"
same,inhibitory pattern,[16],competitive inhibition
same,Inhibition zone,[17],11.5 mm
same,Inhibition zone (class symbol),[17],+ (key: + indicates inhibitory zone diameter of 10 mm or less)
same,Inhibition zone,[18],0 mm
same,Inhibition zone,[19],0 mm
same,Inhibition zone,[20],0 mm
same,Inhibition zone,Bacillus subtilis rec^-,0 mm
same,"Inhibition zone, partial inhibition (value in parentheses)",Bacillus subtilis rec^-; [23],15.2 mm
same,Inhibition zone,Bacillus subtilis rec^+,0 mm
same,Inhibition zone,[21],10.6 mm and 16.8 mm
same,"Inhibition zone, partial inhibition (value in parentheses)",[21]; [23],15.2 mm
CC[C@H](C)[C@H](NC(=O)[C@H](Cc1ccccc1)NC(=O)[C@@H](NC(=O)[C@H](Cc1cnc[nH]1)NC(=O)CNC(=O)CNC(=O)[C@H](Cc1ccccc1)NC(=O)[C@H](CC(C)C)NC(=O)[C@@H]1CC(=O)NCC(=O)N[C@@H](Cc2ccc(O)cc2)C(=O)N2CCC[C@H]2C(=O)N[C@@H](Cc2c[nH]c3ccccc23)C(=O)N[C@@H](Cc2c[nH]c3ccccc23)C(=O)N[C@@H](CC(=O)O)C(=O)N[C@@H](Cc2ccc(O)cc2)C(=O)N[C@@H](CCCNC(=N)N)C(=O)N1)[C@@H](C)O)C(=O)N[C@@H](CO)C(=O)N1CCC[C@H]1C(=O)O [SNA-115] (GYPWWDYRDLFGGHTFISP-OH; lactam N-9),Solubility,Solubility in solvents,"Soluble in methanol, dimethylsulfoxide, butanol and ethanol, and insoluble in acetonitrile, chloroform, acetone and water"
same,IC50,[16],1130 nM and 1100 nM
same,Ki,[16],697 nM and 700 nM
same,acute toxicity,[22],≥ 10 mg/kg
CC[C@H](C)[C@H](NC(=O)[C@H](Cc1ccccc1)NC(=O)[C@@H](NC(=O)[C@H](Cc1c[nH]cn1)NC(=O)CNC(=O)CNC(=O)[C@H](Cc1ccccc1)NC(=O)[C@H](CC(C)C)NC(=O)[C@@H](N)CC(=O)NCC(=O)N[C@@H](Cc1ccc(O)cc1)C(=O)N1CCC[C@H]1C(=O)N[C@@H](Cc1c[nH]c2ccccc12)C(=O)N[C@@H](Cc1c[nH]c2ccccc12)C(=O)N[C@@H](CC(=O)O)C(=O)N[C@@H](Cc1ccc(O)cc1)C(=O)N[C@@H](CCCNC(=N)N)C(=O)O)[C@@H](C)O)C(=O)N[C@@H](CO)C(=O)N1CCC[C@H]1C(=O)O [SNA-115T] (I: H-DLFGGHTFISP-OH / II: GYPWWDYR-OH; amide I:1-II:N),Inhibition zone,[1],0 mm
same,Inhibition zone,[13],0 mm
same,IC50,[16],1300 nM
same,inhibitory pattern,[16],competitive inhibition
same,Ki,[16],475 nM and 480 nM
same,Inhibition zone,"[17]; paper disc, 40 μg per disc",0 mm
same,Inhibition zone,[18],0 mm
same,Inhibition zone,"[19]; paper disc, 40 μg per disc",0 mm
same,acute toxicity,[22],≥ 10 mg/kg
same,Inhibition zone,[20],0 mm
same,Inhibition zone,Bacillus subtilis rec^-,0 mm
same,Inhibition zone,Bacillus subtilis rec^+,0 mm
same,Inhibition zone,[21],0 mm
